Assay results as given in patent US11072581B2, “N-acyl-arylsulfonamide derivatives as aminoacyl-tRNA synthetase inhibitors” (Oxford Drug Design Limited, priority 2015, dated 2021).
Where a name gives a salt, the structure may show the parent alone.

Tests used:
[1] = biological target: T1, SauVRS (valyl-tRNA synthetase from Staphylococcus aureus) (Staphylococcus aureus, UniProt Q2FXR8); experiment: aaRS aminoacylation assay (ATP consumption), SauVRS; assay type: biochemical; conditions: i.a. = inactive at a concentration below 50 uM
T1 construct: made in house; host or cells: Escherichia coli M15
T1 sequence (Q2FXR8 1-876): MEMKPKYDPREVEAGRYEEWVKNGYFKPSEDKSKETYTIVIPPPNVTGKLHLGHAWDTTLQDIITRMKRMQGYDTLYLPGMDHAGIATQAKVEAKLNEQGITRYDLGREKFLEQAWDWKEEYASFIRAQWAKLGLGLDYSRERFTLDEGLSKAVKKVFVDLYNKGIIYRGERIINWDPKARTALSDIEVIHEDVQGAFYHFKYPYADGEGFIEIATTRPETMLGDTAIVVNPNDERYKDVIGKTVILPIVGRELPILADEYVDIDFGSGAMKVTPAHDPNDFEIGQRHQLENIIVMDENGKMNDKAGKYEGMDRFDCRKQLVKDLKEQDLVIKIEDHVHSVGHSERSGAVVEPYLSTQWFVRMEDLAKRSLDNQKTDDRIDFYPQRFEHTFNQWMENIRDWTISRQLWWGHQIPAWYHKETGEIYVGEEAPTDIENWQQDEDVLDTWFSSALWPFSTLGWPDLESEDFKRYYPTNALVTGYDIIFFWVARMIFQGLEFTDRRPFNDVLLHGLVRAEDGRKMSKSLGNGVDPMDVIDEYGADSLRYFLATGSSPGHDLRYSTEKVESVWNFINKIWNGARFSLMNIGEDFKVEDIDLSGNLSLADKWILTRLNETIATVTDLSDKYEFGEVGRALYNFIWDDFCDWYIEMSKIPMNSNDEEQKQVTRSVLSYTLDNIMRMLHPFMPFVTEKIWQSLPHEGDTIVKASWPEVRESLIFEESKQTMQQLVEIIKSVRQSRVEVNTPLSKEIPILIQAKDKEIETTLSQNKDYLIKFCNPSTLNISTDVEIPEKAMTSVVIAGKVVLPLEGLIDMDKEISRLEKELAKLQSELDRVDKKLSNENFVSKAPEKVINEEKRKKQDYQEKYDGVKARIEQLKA
Procedure: (§1) The compounds have been tested for antibacterial activity in vitro as aminoacyl-tRNA synthetases (aaRS) inhibitors following the following process.
(§2) Leucyl-, valyl- and isoleucyl-tRNA synthetases (LRS, VRS and IRS, respectively) from Escherichia coli (Eco) and Staphylococcus aureus (Sau).
(§3) Escherichia coli M15 cells transformed with plasmid pQE-60, or pQE-70, containing the open-reading frame sequence of one targeted aaRS were induced with 1 mM IPTG (Isopropyl β-D-1-thiogalactopyranoside) for 3 h at 37° C. Bacterial cells were harvested and lysed with 20 mM NaH2PO4 (pH 8.0), 200 mM NaCl, 10 mM imidazole and protease inhibitor cocktail (Roche). Pathogenic aaRS was purified by nickel affinity standard chromatography. Protein concentration was determined by spectrophotometry.
(§4) tRNA^Leu, tRNA^Val and tRNA^Ile from E. coli and S. aureus were transcribed in vitro for 4 h at 37° C. using T7 RNA polymerase. Transcription reaction contained 40 mM Tris-HCl (pH 8.0), 22 mM MgCl2, 1 mM spermidine, 5 mM DTT, 0.01% Triton X-100, 4 mM GTP, 4 mM ATP, 4 mM UTP, 4 mM CTP, 16 mM GMP, […] T7 RNA polymerase and 150 μg BstNI digested plasmid. Once finished, the reaction was applied on a 6% polyacrylamide-8 M urea denaturing gel to purify the transcribed tRNA and discard any impurities. Purified tRNA was quantified with Nanodrop 2000 (Thermo Scientific).
(§5) The aminoacylation reaction catalyzed by aminoacyl-tRNA synthetases (aaRS) takes place in two steps. In the first step, aaRS activates its cognate amino acid with ATP; and in the second step the activated amino acid is loaded to its corresponding tRNA. This reaction can be summarized as follows: ARS+aa+ATP=ARS-aa-AMP+PPi ARS-aa-AMP+tRNA=aa-tRNA+AMP+ARS [2] (ARS, Aminoacyl-tRNA synthetase; aa, amino acid; ARS-aa-AMP, enzyme-bound to aminoacyl-adenylate; aa-tRNA, aminoacyl-tRNA).
(§6) The activity of the pathogenic aaRSs was monitored by measuring the ATP consumption rate, since this consumption is directly proportional to the activity of the aaRS. If the tested compound, at a single point concentration of 50 μM, is inhibiting the aminoacylation reaction, there is a decrease in the ATP consumption, compared to the control reaction without compound, allowing the calculation of an inhibition ratio.
(§7) When the inhibition ratio for a given compound was above 80%, IC50 determination was performed with the same enzymatic assay (using the commercial kit Kinase RR from BioThema AB, Sweden) in the presence of serial dilutions of inhibitor. Known inhibitors of LRS, VRS or IRS were used as a positive control of the assay. The IC50 was calculated based on nonlinear regression analysis.

[2] = biological target: T2, EcoVRS (valyl-tRNA synthetase from Escherichia coli) (Escherichia coli, UniProt P07118); experiment: aaRS aminoacylation assay (ATP consumption), EcoVRS; assay type: biochemical; conditions: i.a. = inactive at a concentration below 50 uM
T2 construct: made in house; host or cells: Escherichia coli M15
Procedure: as §1, §2, §3, §4, §5, §6, §7

[3] = biological target: T3, EcoIRS (isoleucyl-tRNA synthetase from Escherichia coli) (Escherichia coli, UniProt P00956); experiment: aaRS aminoacylation assay (ATP consumption), EcoIRS; assay type: biochemical; conditions: i.a. = inactive at a concentration below 50 uM
T3 construct: made in house; host or cells: Escherichia coli M15
Procedure: as §1, §2, §3, §4, §5, §6, §7

T2 sequence (P07118 whole entry): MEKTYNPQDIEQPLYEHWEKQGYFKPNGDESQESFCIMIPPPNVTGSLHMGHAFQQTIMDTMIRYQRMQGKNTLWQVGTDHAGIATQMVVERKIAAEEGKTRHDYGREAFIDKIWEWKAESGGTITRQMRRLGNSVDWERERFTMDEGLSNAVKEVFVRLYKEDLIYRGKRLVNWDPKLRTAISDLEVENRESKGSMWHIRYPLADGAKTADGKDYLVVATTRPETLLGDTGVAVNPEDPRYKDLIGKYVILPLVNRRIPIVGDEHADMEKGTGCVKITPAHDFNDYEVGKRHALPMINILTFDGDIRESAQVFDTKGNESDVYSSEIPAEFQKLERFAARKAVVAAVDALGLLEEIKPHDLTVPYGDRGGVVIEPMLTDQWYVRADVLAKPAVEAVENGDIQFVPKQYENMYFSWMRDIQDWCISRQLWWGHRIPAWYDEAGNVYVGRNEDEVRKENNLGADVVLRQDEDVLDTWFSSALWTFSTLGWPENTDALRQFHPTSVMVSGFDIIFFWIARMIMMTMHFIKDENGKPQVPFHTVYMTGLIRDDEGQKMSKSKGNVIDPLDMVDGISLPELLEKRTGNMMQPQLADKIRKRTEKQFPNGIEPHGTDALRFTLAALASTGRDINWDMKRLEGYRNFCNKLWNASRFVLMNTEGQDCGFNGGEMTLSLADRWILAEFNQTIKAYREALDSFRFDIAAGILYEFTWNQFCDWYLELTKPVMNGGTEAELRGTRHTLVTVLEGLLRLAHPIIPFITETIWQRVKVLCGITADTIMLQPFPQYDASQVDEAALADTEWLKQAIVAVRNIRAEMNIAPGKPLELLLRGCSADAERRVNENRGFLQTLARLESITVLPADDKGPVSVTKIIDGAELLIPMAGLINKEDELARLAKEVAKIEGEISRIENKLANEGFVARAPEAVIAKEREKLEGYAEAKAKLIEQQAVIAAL
T3 sequence (P00956 whole entry): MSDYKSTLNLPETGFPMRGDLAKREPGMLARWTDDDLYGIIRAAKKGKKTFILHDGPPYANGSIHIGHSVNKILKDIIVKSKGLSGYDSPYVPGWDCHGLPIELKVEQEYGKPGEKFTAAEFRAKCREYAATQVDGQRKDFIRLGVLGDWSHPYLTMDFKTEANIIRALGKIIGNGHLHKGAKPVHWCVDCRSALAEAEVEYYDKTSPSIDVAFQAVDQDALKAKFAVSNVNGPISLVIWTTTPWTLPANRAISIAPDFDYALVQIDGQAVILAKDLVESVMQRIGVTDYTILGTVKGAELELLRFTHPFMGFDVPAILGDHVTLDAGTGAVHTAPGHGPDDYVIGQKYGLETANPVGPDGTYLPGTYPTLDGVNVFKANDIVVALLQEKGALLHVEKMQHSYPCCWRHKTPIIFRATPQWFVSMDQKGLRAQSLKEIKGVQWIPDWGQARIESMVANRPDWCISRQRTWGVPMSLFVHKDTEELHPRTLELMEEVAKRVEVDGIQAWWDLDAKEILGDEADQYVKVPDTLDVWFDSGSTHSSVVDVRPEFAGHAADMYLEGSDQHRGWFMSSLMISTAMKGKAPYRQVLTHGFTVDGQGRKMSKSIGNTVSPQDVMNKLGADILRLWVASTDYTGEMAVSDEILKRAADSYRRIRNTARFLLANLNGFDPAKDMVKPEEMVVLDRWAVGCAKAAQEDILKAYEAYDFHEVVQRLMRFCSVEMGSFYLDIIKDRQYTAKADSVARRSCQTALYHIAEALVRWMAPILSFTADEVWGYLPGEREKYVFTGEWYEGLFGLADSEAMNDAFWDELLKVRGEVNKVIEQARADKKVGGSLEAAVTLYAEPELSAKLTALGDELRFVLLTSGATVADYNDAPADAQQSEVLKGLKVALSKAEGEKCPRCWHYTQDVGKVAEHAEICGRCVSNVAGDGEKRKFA

Structure (SMILES) | IC50 SauVRS [1] | IC50 EcoVRS [2] | IC50 EcoIRS [3] | melting point
CC(C)C[C@H](N)C(=O)NS(=O)(=O)c1ccc(Br)c2ccncc12 [Compound 5.22, trifluoroacetate] | i.a | i.a | i.a | –
CC(C)C[C@H](N)C(=O)NS(=O)(=O)c1cccc(-c2ccncc2)c1 [Compound 5.42] | i.a. | i.a. | – | 151 °C (dec.)
Cc1cc(-c2cccc(S(=O)(=O)NC(=O)[C@@H](N)CC(C)C)c2)ncn1 [Compound 5.39] | i.a. | i.a. | – | 246 °C
CC(C)C[C@H](N)C(=O)NS(=O)(=O)c1ccccc1 [Compound 5.1, (S)-2-amino-4-methyl-N-(phenylsulfonyl)pentanamide hydrochloride] | i.a. | i.a. | i.a. | –
CC(C)C[C@H](N)C(=O)NS(=O)(=O)c1cccc(-c2cc(N(C)C)nc(N)n2)c1 [Compound 5.28] | i.a | i.a | i.a | –
CC(C)C[C@H](N)C(=O)NS(=O)(=O)c1ccccc1Cl [Compound 5.5] | i.a | i.a | i.a | –
CC(C)C[C@H](N)C(=O)NS(=O)(=O)c1cccc2cc(C(N)=O)ncc12 [Compound 5.24, 8-(N-(L-Leucyl)sulfamoyl)isoquinoline-3-carboxamide] | i.a | i.a | i.a | –
CC(C)C[C@H](N)C(=O)NS(=O)(=O)c1cccc(-c2ccnc(N)c2)c1 [Compound 5.43] | i.a. | i.a. | – | 141 °C (dec.)
CC(C)C[C@H](N)C(=O)NS(=O)(=O)c1cccc(-c2cccc(N)n2)c1 [Compound 5.44] | i.a. | i.a. | – | 148 °C (dec.)
Cc1cc(-c2cccc(S(=O)(=O)NC(=O)[C@@H](N)CC3CCC3)c2)nc(N)n1 [Compound 5.31] | i.a | i.a | i.a | –
CC(C)C[C@H](N)C(=O)NS(=O)(=O)c1cccc(-c2cc(-c3ccccc3)nc(N)n2)c1 [Compound 5.41] | i.a. | i.a. | – | 186 to 188 °C (dec.)
CC[C@H](C)[C@H](N)C(=O)NS(=O)(=O)c1cccc(-c2cc(C)nc(N)n2)c1 [Compound 5.40] | i.a. | i.a. | – | 97 °C
CC(C)C[C@H](N)C(=O)NS(=O)(=O)c1cccc(-c2ccnc(Cl)n2)c1 [Compound 5.49] | i.a. | i.a. | – | 231 to 238 °C (dec.)
CC(C)C[C@H](N)C(=O)NS(=O)(=O)c1cccc2ccccc12 [Compound 5.13] | i.a | i.a | i.a | –
CC(C)C[C@H](N)C(=O)NS(=O)(=O)c1cccc(-c2cc(N)ncn2)c1 [Compound 5.46] | i.a. | i.a. | – | –
COc1cc(-c2cccc(S(=O)(=O)NC(=O)[C@@H](N)CC(C)C)c2)nc(N)n1 [Compound 5.36] | i.a. | i.a. | – | 87 to 88 °C (dec.)
CC(C)C[C@H](N)C(=O)NS(=O)(=O)c1cccc2cccnc12 [Compound 5.19] | i.a | i.a | i.a | –
Cc1cc(-c2cccc(S(=O)(=O)NC(=O)[C@@H](N)CC3CCCCC3)c2)nc(N)n1 [Compound 5.34] | i.a | i.a | i.a | –
CC(C)C[C@H](N)C(=O)NS(=O)(=O)c1cccc(-c2ncnc(N)n2)c1 [Compound 5.48] | i.a. | i.a. | – | –
CC(C)C[C@H](N)C(=O)NS(=O)(=O)c1cccc(Cl)c1 [Compound 5.4] | i.a | i.a | i.a | –
CC(C)C[C@H](N)C(=O)NS(=O)(=O)c1cccc2c1CNCC2 [Compound 5.26, (S)-2-amino-4-methyl-N-((1,2,3,4-tetrahydroisoquinolin-8-yl)sulfonyl) pentanamide trifluoroacetate] | i.a | i.a | i.a | –
Cc1cc(-c2cccc(S(=O)(=O)NC(=O)[C@@H](N)CC(C)C)c2)nc(N)n1 [Compound 5.35, (S)-2-amino-N-((3-(2-amino-6-methylpyrimidin-4-yl)phenyl)sulfonyl)-4-methylpentanamide] | i.a. | i.a. | – | 241 to 242 °C (dec.)
CC(C)C[C@H](N)C(=O)NS(=O)(=O)c1cccc(-c2nc(N)nc3nc[nH]c23)c1 [Compound 5.38] | i.a. | i.a. | – | 117 °C (dec.)
CC(C)C[C@H](N)C(=O)NS(=O)(=O)c1cccc(-c2cc(N)nc(N)n2)c1 [Compound 5.45] | i.a. | i.a. | – | 234 °C (dec.)
CCc1cc(-c2cccc(S(=O)(=O)NC(=O)[C@@H](N)CC(C)C)c2)nc(N)n1 [Compound 5.47] | i.a. | i.a. | – | –
CC(C)C[C@H](N)C(=O)NS(=O)(=O)c1cccc(-c2ccnc(N)n2)c1 [Compound 5.37] | i.a. | i.a. | – | 224 to 226 °C (dec.)
CC(C)C[C@H](N)C(=O)NS(=O)(=O)c1cccc(-c2ccnc(O)n2)c1 [Compound 5.50] | i.a. | i.a. | – | 191 to 221 °C (dec.)
